Test system: P. falciparum strain 3D7
Test: In vitro potency against P. falciparum strain 3D7 (SYBR green/DAPI)
Type: cell-based
Conditions: Plasmodium falciparum, reductions in parasitemia, read-out: IC50 values

Row | SMILES | IC50 [nM]
1 | CCOc1ccc(Cl)cc1C1(O)C(N)=Nc2ccc(C)cc21 (centres unmarked) [Compound 244] | 1 to 100
2 | COc1ccc(C2(O)C(N)=Nc3ccccc32)cc1 (centres unmarked) [Compound 5] | 100 to 500
3 | COc1ccc2c(c1)C(O)(c1cc(OC)cc3ccccc13)C(N)=N2 (centres unmarked) [Compound 61] | 5000 to 15000
4 | COc1ccc(Cl)cc1C1(O)C(N)=Nc2ccc(Cl)cc21 (centres unmarked) [Compound 140] | 1 to 100
5 | NC1=Nc2ccc(Cl)cc2C1(O)c1ccccc1Br (centres unmarked) [Compound 118] | 100 to 500
6 | COc1cccc(C2(O)C(N)=Nc3ccccc32)c1 (centres unmarked) [Compound 7] | 100 to 500
7 | NC1=Nc2ccc(Cl)cc2C1(O)c1ccc2c(c1)OCO2 (centres unmarked) [Compound 13] | 100 to 500
8 | Cc1csc2c(CC3(O)C(N)=Nc4ccc(Cl)cc43)cccc12 (centres unmarked) [Compound 206] | 100 to 500
9 | CCOc1cnc(OC)c(C2(O)C(N)=Nc3ccc(Cl)cc32)c1 (centres unmarked) [Compound 211] | 1 to 100
10 | N#Cc1ccccc1C1(O)C(N)=Nc2ccc(Cl)cc21 (centres unmarked) [Compound 109] | 5000 to 15000
11 | NC1=Nc2cc3c(cc2C1(O)c1ccccc1)OCCO3 (centres unmarked) [Compound 77] | 100 to 500
12 | CCOc1cc(F)c(F)cc1C1(O)C(N)=Nc2ccc(C)cc21 (centres unmarked) [Compound 255] | 1 to 100
13 | NC1=Nc2ccc(Cl)cc2C1(O)c1ccc(C(=O)O)cc1 (centres unmarked) [Compound 102] | 5000 to 15000
14 | COc1ccc(CC2(O)C(N)=Nc3ccccc32)cc1 (centres unmarked) [Compound 126] | 100 to 500
15 | Cc1ccc2c(c1)C(O)(C(C)C)C(N)=N2 (centres unmarked) [Compound 231] | 100 to 500
16 | Cn1ccc2cccc(C3(O)C(N)=Nc4ccc(Cl)cc43)c21 (centres unmarked) [Compound 111] | 1 to 100
17 | COc1ccc(CCc2ccc3c(c2)C(O)(c2ccccc2)C(N)=N3)cc1 (centres unmarked) [Compound 106] | 100 to 500
18 | COc1ccc2c(c1)C(O)(c1cc(F)cc3ccccc13)C(N)=N2 (centres unmarked) [Compound 269] | 1 to 100
19 | CSc1ccc(F)cc1C1(O)C(N)=Nc2ccc(Cl)cc21 (centres unmarked) [Compound 203] | 1 to 100
20 | COc1ccc2c(c1)C(O)(c1cc(Cl)ccc1C1CC1)C(N)=N2 (centres unmarked) [Compound 253] | 1 to 100
21 | NC1=Nc2ccc(Cl)cc2C1(O)c1cccc2ccsc12 (centres unmarked) [Compound 82] | 1 to 100
22 | NC1=Nc2ccc(Cl)cc2C1(O)c1ccc(C(F)(F)F)cc1 (centres unmarked) [Compound 16] | 100 to 500
23 | NC1=Nc2ccccc2C1(O)c1cccc(C(F)(F)F)c1 (centres unmarked) [Compound 19] | 100 to 500
24 | NC1=Nc2ccc(Cl)cc2C1(O)C#Cc1ccccc1 (centres unmarked) [Compound 237] | 1000 to 5000

Row | SMILES | IC50 [nM]
25 | CCOc1ccc(C2(O)C(N)=Nc3ccc(Cl)cc32)c(Cl)c1 (centres unmarked) [Compound 260] | 100 to 500
26 | CC(C)n1ncc2cccc(C3(O)C(N)=Nc4ccc(Cl)cc43)c21 (centres unmarked) [Compound 172] | 500 to 1000
27 | COc1ccc(C2(O)C(N)=Nc3ccc(Cl)cc32)cc1 (centres unmarked) [Compound 72] | 500 to 1000
28 | COc1ccc(OC(C)C)c(C2(O)C(N)=Nc3ccc(Cl)cc32)c1 (centres unmarked) [Compound 152] | 1 to 100
29 | NC1=Nc2ccc(Cl)cc2C1(O)c1cccc2cccnc12 (centres unmarked) [Compound 58] | 100 to 500
30 | NC1=Nc2ccc(Cl)cc2C1(O)CCc1ccccc1 (centres unmarked) [Compound 74] | 100 to 500
31 | NC1=Nc2ccc(Cl)cc2C1(O)Cc1cc2ccccc2o1 (centres unmarked) [Compound 160] | 1 to 100
32 | CC(C)(C)C1(O)C(N)=Nc2ccc(Cl)cc21 (centres unmarked) [Compound 75] | 100 to 500
33 | NC1=Nc2ccc(Cl)cc2C1(O)c1cc2ccccc2o1 (centres unmarked) [Compound 144] | 1 to 100
34 | COc1cc(C2(O)C(N)=Nc3ccc(C)cc32)c2ccccc2c1 (centres unmarked) [Compound 63] | 5000 to 15000
35 | NC1=Nc2ccc(Cl)cc2C1(O)c1cc(F)ccc1N1CCCCCC1 (centres unmarked) [Compound 175] | 1 to 100
36 | CCSc1ccc(Cl)cc1C1(O)C(N)=Nc2ccc(Cl)cc21 (centres unmarked) [Compound 171] | 1 to 100
37 | CC(C)(C)Oc1ccc(F)cc1C1(O)C(N)=Nc2ccc(Cl)cc21 (centres unmarked) [Compound 194] | 1 to 100
38 | CCOc1cc(F)c(F)cc1C1(O)C(N)=Nc2ccc(Cl)cc21 (centres unmarked) [Compound 250] | 1 to 100
39 | COc1ccccc1C1(O)C(N)=Nc2ccc(Cl)cc21 (centres unmarked) [Compound 70] | 1 to 100
40 | CC(C)Oc1ccc(F)cc1C1(O)C(N)=Nc2ccc(Cl)cc21 (centres unmarked) [Compound 154] | 1 to 100
41 | COc1ccc(OC2CC2)c(C2(O)C(N)=Nc3ccc(Cl)cc32)c1 (centres unmarked) [Compound 165] | 1 to 100
42 | NC1=Nc2ccc(Cl)cc2C1(O)c1cccc2c1oc1ccccc12 (centres unmarked) [Compound 69] | 100 to 500
43 | CC(C)c1ccccc1CC1(O)C(N)=Nc2ccc(Cl)cc21 (centres unmarked) [Compound 168] | 1 to 100
44 | NC1=Nc2ccc(Br)cc2C1(O)c1cccc2ccsc12 (centres unmarked) [Compound 166] | 1 to 100
45 | COc1cnc(OC)c(C2(O)C(N)=Nc3ccc(Cl)cc32)c1 (centres unmarked) [Compound 201] | 1 to 100
46 | Cc1ccccc1C1(O)C(N)=Nc2ccc(Cl)cc21 (centres unmarked) [Compound 71] | 1 to 100
47 | CC(C)Sc1ccc(Cl)cc1C1(O)C(N)=Nc2ccc(Cl)cc21 (centres unmarked) [Compound 176] | 1 to 100
48 | CN(C)c1ccccc1C1(O)C(N)=Nc2ccc(Cl)cc21 (centres unmarked) [Compound 80] | 1 to 100

Row | SMILES | IC50 [nM]
49 | COc1ccccc1C1(O)C(N)=Nc2ccc(C)cc21 (centres unmarked) [Compound 122] | 100 to 500
50 | Cn1ncc2ccc(C3(O)C(N)=Nc4ccc(Cl)cc43)cc21 (centres unmarked) [Compound 138] | 100 to 500
51 | NC1=Nc2ccc(Cl)cc2C1(O)c1nccs1 (centres unmarked) [Compound 60] | 1000 to 5000
52 | COc1ccc(OC2CCC2)c(C2(O)C(N)=Nc3ccccc32)c1 (centres unmarked) [Compound 195] | 1 to 100
53 | NC1=Nc2ccc(-c3cccnc3)cc2C1(O)c1ccccc1 (centres unmarked) [Compound 99] | 5000 to 15000
54 | Cc1ccc(C2(O)C(N)=Nc3ccc(Cl)cc32)cc1 (centres unmarked) [Compound 22] | 500 to 1000
55 | COc1cc(C2(O)C(N)=Nc3ccc(Cl)cc32)c2ccccc2n1 (centres unmarked) [Compound 263] | 1 to 100
56 | CCOc1ccc(Cl)cc1C1(O)C(N)=Nc2ccc(Cl)cc21 (centres unmarked) [Compound 155] | 1 to 100
57 | CCOc1cc(F)ccc1C1(O)C(N)=Nc2ccc(C)cc21 (centres unmarked) [Compound 251] | 1 to 100
58 | NC1=Nc2ccc(Cl)cc2C1(O)c1cc(F)ccc1SC1CC1 (centres unmarked) [Compound 199] | 1 to 100
59 | COc1cc(F)c(C2(O)C(N)=Nc3ccc(Cl)cc32)cc1OC (centres unmarked) [Compound 217] | 1 to 100
60 | CCSc1ccccc1C1(O)C(N)=Nc2ccc(Cl)cc21 (centres unmarked) [Compound 163] | 1 to 100
61 | Cn1ncc2cccc(C3(O)C(N)=Nc4ccc(Cl)cc43)c21 (centres unmarked) [Compound 135] | 1 to 100
62 | NC1=Nc2ccc(Cl)cc2C1(O)c1cc(Cl)ccc1SC1CCC1 (centres unmarked) [Compound 189] | 1 to 100
63 | NC1=Nc2ccc(Cl)cc2C1(O)c1ccc2ccccc2c1 (centres unmarked) [Compound 24] | 100 to 500
64 | NC1=Nc2ccc(Cl)cc2C1(O)C1CCCCC1 (centres unmarked) [Compound 116] | 100 to 500
65 | NC1=Nc2ccc(Cl)cc2C1(O)c1cccc2ccncc12 (centres unmarked) [Compound 117] | 100 to 500
66 | NC1=Nc2ccc(Cl)cc2C1(O)c1ccccc1OC1CC1 (centres unmarked) [Compound 216] | 1 to 100
67 | COC(=O)c1ccc2c(c1)C(O)(c1ccccc1)C(N)=N2 (centres unmarked) [Compound 110] | 500 to 1000
68 | CN(C)c1ccc(Cl)cc1C1(O)C(N)=Nc2ccc(Cl)cc21 (centres unmarked) [Compound 174] | 1 to 100
69 | Cc1ccc2c(c1)C(O)(c1cc(Cl)ccc1C1CC1)C(N)=N2 (centres unmarked) [Compound 262] | 1 to 100
70 | NC1=Nc2ccc(CCc3ccccc3)cc2C1(O)c1ccccc1 (centres unmarked) [Compound 92] | 100 to 500
71 | NC1=Nc2cc3c(cc2C1(O)c1ccccc1)OCO3 (centres unmarked) [Compound 57] | 100 to 500
